The numbers were not newly measured in patent US20190069585A1, “Compositions of micronutrients and phytochemicals for optimal human health” (priority 2017, published 2019), which cites them from elsewhere.

For this series the following is noted: consumed orally by humans.

As to `N[C@@H](CCC(=O)N[C@@H](CS)C(=O)NCC(=O)O)C(=O)O` [glutathione], the “plasma levels of glutathione” value is given as “do not significantly increase”.
